This experiment concerns the target T1, recombinant 15-PGDH (Homo sapiens, UniProt P15428).
T1 sequence (P15428 1-266): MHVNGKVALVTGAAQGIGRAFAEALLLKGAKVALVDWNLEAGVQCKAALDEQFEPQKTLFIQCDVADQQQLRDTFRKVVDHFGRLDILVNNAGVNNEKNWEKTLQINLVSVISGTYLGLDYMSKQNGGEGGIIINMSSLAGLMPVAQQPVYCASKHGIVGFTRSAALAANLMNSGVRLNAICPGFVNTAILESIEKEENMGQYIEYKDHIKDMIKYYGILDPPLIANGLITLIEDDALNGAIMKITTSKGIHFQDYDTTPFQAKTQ
Type of experiment: biochemical. The settings on record: recombinant human 15-PGDH, in vitro; read-out: PDGH Assay-IC50.

Text: The Recombinant 15-PGDH is human unless otherwise specified.

Usually IC50 stands for the concentration at which inhibition is half-maximal. As for `COCC[S+]([O-])c1sc2nc(-c3cncnc3)cc(C3CCC3)c2c1N` (stereo not shown) [Example 251], the half-maximal inhibitory concentration (IC50) was < 2.5 nM.

Regarding `Nc1c([S+]([O-])C2CCC2)sc2nc(-c3cncnc3)cc(-c3ccc(C4COC4)nc3)c12` (stereo not shown) [Example 147], the IC50 is < 2.5 nM.

Turning to `COCCC[S+]([O-])c1sc2nc(-c3cnc4c(cnn4C)c3)cc(C3CC3)c2c1N` (stereo not shown) [Example 172], the IC50 was in the range of 2.5 to 10 nM.

With `NCCOCCNc1ncc(-c2cc(-c3ccccc3)c3c(N)c([S+]([O-])C4CCC4)sc3n2)cn1` (stereo not shown) [Example 156], the IC50 is < 2.5 nM.

On to `COCCC[S+]([O-])c1sc2nc(-c3cnc(C)nc3)cc(C(F)(F)F)c2c1N` (stereo not shown) [Example 136], for which the IC50 lay in the range of 2.5 to 10 nM.

`Nc1c([S@+]([O-])C2CCC2)sc2nc(-c3cnc4ncnn4c3)cc(-c3ccccc3)c12` [Example 402]: the IC50 was < 2.5 nM.

As for `COCC[S+]([O-])c1sc2nc(-c3cncnc3)cc(-c3ccnc(C)c3)c2c1N` (stereo not shown) [Example 127], the half-maximal inhibitory concentration (IC50) is < 2.5 nM.

Consider `CS(=O)(=O)Nc1ncc(-c2cc(-c3ccccc3)c3c(N)c([S@@+]([O-])C4CCC4)sc3n2)cn1` [Example 69], for which the IC50 was ≥ 10 nM.

`COCCC[S+]([O-])c1sc2nc(-c3cccnc3)nc(C3CC3)c2c1N` (stereo not shown) [Example 191]: the IC50 is 2.5 to 10 nM.

`COCCC[S+]([O-])c1sc2nc(-c3cnc4c(cnn4CCO)c3)cc(C3CC3)c2c1N` (stereo not shown) [Example 302]: the IC50 fell in the range of 2.5 to 10 nM.

Consider `COCCC[S+]([O-])c1sc2nc(-c3cnc4nn(CCO)cc4c3)cc(-c3ccccc3)c2c1N` (stereo not shown) [Example 269], for which the IC50 is < 2.5 nM.

With `Cn1nccc1-c1cc(-c2cnc(O)nc2)nc2sc([S@@+]([O-])C3CCC3)c(N)c12` [Example 225], the IC50 is ≥ 10 nM.

For the compound `Nc1c([S+]([O-])C2CCC2)sc2nc(-c3cccnc3)cc(C3CCOCC3)c12` (stereo not shown) [Example 43], the IC50 is < 2.5 nM.

For `COCC[S+]([O-])c1sc2nc(-c3cnc(NCCO)nc3)cc(C(F)(F)F)c2c1N` (stereo not shown) [Example 140], the IC50 lay within 2.5 to 10 nM.

As to `COCCC[S@@+]([O-])c1sc2nc(-c3cncnc3)cc(-c3ncccn3)c2c1N` [Example 111], the IC50 was < 2.5 nM.

`Cn1nccc1-c1cc(-c2cnc(O)nc2)nc2sc([S+]([O-])C3CCC3)c(N)c12` (stereo not shown) [Example 223]: the IC50 was < 2.5 nM.

As to `COCC[S+]([O-])c1sc2nc(-c3cnc(C)nc3)cc(C(F)(F)F)c2c1N` (stereo not shown) [Example 137], the IC50 was < 2.5 nM.

On to `COCC[S@@+]([O-])c1sc2nc(-c3cnc4nn(C)cc4c3)nc(-c3ccccc3)c2c1N` [Example 433], for which the half-inhibitory concentration (IC50) is < 2.5 nM.

In the case of `COCCC[S+]([O-])c1sc2nc(-c3cncnc3)cc(C3CCC3)c2c1N` (stereo not shown) [Example 254], the IC50 was < 2.5 nM.

On to `COCC[S@+]([O-])c1sc2nc(-c3cnc4c(c3)ncn4C)cc(C3CCC3)c2c1N` [Example 375], for which the IC50 is ≥ 10 nM.

Regarding `COCC[S+]([O-])c1sc2nc(-c3ccc(N)nc3)cc(C(F)(F)F)c2c1N` (stereo not shown) [Example 135], the IC50 lay in the range of 2.5 to 10 nM.

Consider `Nc1c([S+]([O-])C2CCC2)sc2nc(-c3cnc4c(c3)CNC4=O)cc(-c3ncccn3)c12` (stereo not shown) [Example 304], for which the IC50 fell in the range of 2.5 to 10 nM.

For `Cn1ccc(-c2cc(-c3cccnc3)c3c(N)c([S+]([O-])C4CCC4)sc3n2)cc1=O` (stereo not shown) [Example 90], the IC50 fell in the range of 2.5 to 10 nM.

For the compound `COCCC[S@+]([O-])c1sc2nc(-c3cncnc3)cc(C(F)(F)F)c2c1N` [Example 201], the IC50 is ≥ 10 nM.

Consider `COCCC[S@@+]([O-])c1sc2nc(-c3cncnc3)cc(-c3ccnc(C)c3)c2c1N` [Example 170], for which the IC50 was < 2.5 nM.

For `COCCC[S+]([O-])c1sc2nc(-c3cnn(CCO)c3)cc(-c3ccccc3)c2c1N` (stereo not shown) [Example 273], the IC50 is < 2.5 nM.

Consider `COCC[S@@+]([O-])c1sc2nc(-c3cnc4ncn(C)c4c3)cc(C3CC3)c2c1N` [Example 405], for which the IC50 was < 2.5 nM.

In the case of `COCCC[S+]([O-])c1sc2nc(-c3cncnc3)cc(-c3ccncn3)c2c1N` (stereo not shown) [Example 237], the IC50 was < 2.5 nM.
